Laboratory results: patent US9676715B2, “Bis-indolic derivatives, a process for preparing the same and their uses as a drug” (UNIVERSITE JOSEPH FOURIER, priority 2011, dated 2017)
Values after ≈ are worked out from the molar mass of the structure shown.

How the values were obtained:
[1] = tested on: S. aureus ATCC 106414 (VISA); assay: MIC, microdilution method (9.1); type: cell-based, Staphylococcus aureus; conditions: Staphylococcus aureus, read after 18 h, read-out: MIC
Protocol: (§1) The microdilution method recommended by the Clinical and Laboratory Standard Institute [M07-A8, Vol. 29, No. 2] was used. The activity of indolic compounds was tested against 29 bacterial strains belonging to 17 different species and 12 different genera (Staphylococcus, Streptococcus, Enterococcus, Listeria, Bacillus, Haemophilus, Escherichia, Klebsiella, Enterobacter, Serratia, Pseudomonas, and Acinetobacter). Bacterial inocula were prepared in Mueller Hinton broth (MH2, bioMérieux, Marcy L'Etoile, France), supplemented with 10% sheep blood for fastidious species (i.e., Streptococcus pneumoniae and Haemophilus influenzae). They were dispensed in 96 well microtiter plates (5×10^5 CFU/ml of final inoculum). Indolic compounds were added to the wells as to obtain two-fold serial concentrations (0.50-128 mg/L of final concentrations). Plates were incubated at 37° C. in ambient air, or at 37° C. in 5% CO2 enriched atmosphere for fastidious species. […] Drug-free cultures served as growth controls. Cultures receiving gentamicin, ciprofloxacin or cefotaxime served as positive controls.

S. aureus ATCC 25923 = assay: MIC, microdilution method (9.1); type: cell-based, Staphylococcus aureus; conditions: Staphylococcus aureus, ATCC25923, read after 18 h, read-out: MIC
Protocol: as §1

S. aureus ATCC 29213 = assay: MIC, microdilution method (9.1); type: cell-based, Staphylococcus aureus; conditions: Staphylococcus aureus, ATCC29213, read after 18 h, read-out: MIC
Protocol: as §1

[2] = tested on: S. aureus ATCC 33592 (MRSA); assay: MIC, microdilution method (9.1); type: cell-based, Staphylococcus aureus; conditions: Staphylococcus aureus, read after 18 h, read-out: MIC
Protocol: as §1

S. aureus ATCC 6538 = assay: MIC, microdilution method (9.1); type: cell-based, Staphylococcus aureus; conditions: Staphylococcus aureus, ATCC6538, read after 18 h, read-out: MIC
Protocol: as §1

S. aureus ATCC 9144 = assay: MIC, microdilution method (9.1); type: cell-based, Staphylococcus aureus; conditions: Staphylococcus aureus, ATCC9144, read after 18 h, read-out: MIC
Protocol: as §1

S. aureus CIP 103428 = assay: MIC, microdilution method (9.1); type: cell-based, Staphylococcus aureus; conditions: Staphylococcus aureus, CIP103428, read after 18 h, read-out: MIC
Protocol: as §1

[3] = tested on: S. aureus CIP 65.25 (MRSA); assay: MIC, microdilution method (9.1); type: cell-based, Staphylococcus aureus; conditions: Staphylococcus aureus, read after 18 h, read-out: MIC
Protocol: as §1

S. aureus CIP 65.6 = assay: MIC, microdilution method (9.1); type: cell-based, Staphylococcus aureus; conditions: Staphylococcus aureus, CIP65, read after 18 h, read-out: MIC
Protocol: as §1

S. aureus SA-1199B = assay: MIC, microdilution method (9.1); type: cell-based, Staphylococcus aureus; conditions: Staphylococcus aureus, SA1199B, 18 h
Protocol: as §1

[4] = tested on: S. epidermidis ATCC 12228; assay: MIC, microdilution method (9.1); type: cell-based, Staphylococcus epidermidis; conditions: Staphylococcus epidermidis, ATCC12228, read after 18 h, read-out: MIC
Protocol: as §1

[5] = tested on: S. epidermidis CIP 103627; assay: MIC, microdilution method (9.1); type: cell-based, Staphylococcus epidermidis; conditions: Staphylococcus epidermidis, CIP103627, read after 18 h, read-out: MIC
Protocol: as §1

S. epidermidis CIP 81.55 = assay: MIC, microdilution method (9.1); type: cell-based, Staphylococcus epidermidis; conditions: Staphylococcus epidermidis, CIP81, read after 18 h, read-out: MIC
Protocol: as §1

S. pneumoniae ATCC 6303 = assay: MIC, microdilution method (9.1); type: cell-based, Streptococcus pneumoniae; conditions: Streptococcus pneumoniae, ATCC6303, 10% sheep blood, 5% CO2, 18 h, read-out: MIC
Protocol: as §1

[6] = tested on: S. agalactiae (group B) ATCC 12400; assay: MIC, microdilution method (9.1); type: cell-based, Streptococcus agalactiae; conditions: Streptococcus agalactiae, ATCC12400, 18 h, read-out: MIC
Protocol: as §1

[7] = tested on: S. pyogenes (group A) CIP 104226; assay: MIC, microdilution method (9.1); type: cell-based, Streptococcus pyogenes; conditions: Streptococcus pyogenes, CIP104226, 18 h, read-out: MIC
Protocol: as §1

S. mitis CIP 103335 = assay: MIC, microdilution method (9.1); type: cell-based, Streptococcus mitis; conditions: Streptococcus mitis, CIP103335, 18 h, read-out: MIC
Protocol: as §1

E. faecium CIP 54.32 = assay: MIC, microdilution method (9.1); type: cell-based, Enterococcus faecium; conditions: Enterococcus faecium, CIP54, 18 h, read-out: MIC
Protocol: as §1

E. faecalis ATCC 29212 = assay: MIC, microdilution method (9.1); type: cell-based, Enterococcus faecalis; conditions: Enterococcus faecalis, ATCC29212, 18 h, read-out: MIC
Protocol: as §1

[8] = tested on: Acinetobacter baumanii ATCC 19606; assay: MIC, microdilution method (9.1); type: cell-based; conditions: Acinetobacter baumannii, ATCC19606, 18 h, read-out: MIC
Protocol: as §1

[9] = tested on: Bacillus subtilis CIP 5262; assay: MIC, microdilution method (9.1); type: cell-based; conditions: CIP5262, 18 h, read-out: MIC
Protocol: as §1

[10] = tested on: Enterobacter cloacae ATCC13047; assay: MIC, microdilution method (9.1); type: cell-based; conditions: 18 h
Protocol: as §1

[11] = tested on: Escherichia coli ATCC 25922; assay: MIC, microdilution method (9.1); type: cell-based; conditions: ATCC25922, 18 h
Protocol: as §1

[12] = tested on: Haemophilus influenzae ATCC 49766; assay: MIC, microdilution method (9.1); type: cell-based; conditions: ATCC49766; Haemophilus influenzae ATCC 49766; 10% sheep blood, 5% CO2; 18 h; read-out: MIC
Protocol: as §1

[13] = tested on: Klebsiella pneumoniae API ATCC 35657; assay: MIC, microdilution method (9.1); type: cell-based; conditions: ATCC35657, 18 h, read-out: MIC
Protocol: as §1

[14] = tested on: Listeria innocua CIP 80.11; assay: MIC, microdilution method (9.1); type: cell-based; conditions: CIP80, 18 h, read-out: MIC
Protocol: as §1

[15] = tested on: Pseudomonas aeruginosa CIP 5933; assay: MIC, microdilution method (9.1); type: cell-based; conditions: CIP5933, 18 h, read-out: MIC
Protocol: as §1

S. pneumoniae ATCC 49619 = assay: MIC, microdilution method (9.1); type: cell-based; conditions: Streptococcus pneumoniae, ATCC49619, 10% sheep blood, 5% CO2, 18 h
Protocol: as §1

[16] = tested on: Serratia marcescens CIP 103551; assay: MIC, microdilution method (9.1); type: cell-based; conditions: CIP103551, 18 h
Protocol: as §1

[17] = tested on: HCT116 (human colon tumor); assay: In vitro cytotoxicity; type: cell-based; conditions: read-out: % of cellular growth inhibition; for inhibition at 10 µM: HCT-116, 10^−5 M; for inhibition at 1 µM: HCT-116, 10^−6 M
Protocol: (§2) In vitro cytotoxicity was assayed on three cell lines—KB (human mouth carcinoma), MCR5 (human lung fibroblast) and HCT116 (human colon tumor). Results are presented in table IV as % of cellular growth inhibition in presence of 10^−5 M and 10^−6 M of the tested bis-indolic derivatives.

[18] = tested on: KB (human mouth carcinoma); assay: In vitro cytotoxicity; type: cell-based; conditions: read-out: % of cellular growth inhibition; for inhibition at 10 µM: 10^−5 M; for inhibition at 1 µM: 10^−6 M
Protocol: as §2

[19] = tested on: MRC5 (human lung fibroblast); assay: In vitro cytotoxicity; type: cell-based; conditions: read-out: % of cellular growth inhibition; for inhibition at 10 µM: 10^−5 M; for inhibition at 1 µM: 10^−6 M
Protocol: as §2

[20] = tested on: HCT116 (human colon tumor); assay: In vitro cytotoxicity; type: cell-based; conditions: HCT-116, HCT116, from 100 μM to 0.005 μM in DMSO, duplicate

| SMILES | MIC [1] [µg/mL] | MIC (S. aureus ATCC 25923) [µg/mL] | MIC (S. aureus ATCC 29213) [µg/mL] | MIC [2] [µg/mL] | MIC (S. aureus ATCC 6538) [µg/mL] | MIC (S. aureus ATCC 9144) [µg/mL] | MIC (S. aureus CIP 103428) [µg/mL] | MIC [3] [µg/mL] | MIC (S. aureus CIP 65.6) [µg/mL] | MIC (S. aureus SA-1199B) [µg/mL] | MIC [4] [µg/mL] | MIC [5] [µg/mL] | MIC (S. epidermidis CIP 81.55) [µg/mL] | MIC (S. pneumoniae ATCC 6303) [µg/mL] | MIC [6] [µg/mL] | MIC [7] [µg/mL] | MIC (S. mitis CIP 103335) [µg/mL] | MIC (E. faecium CIP 54.32) [µg/mL] | MIC (E. faecalis ATCC 29212) [µg/mL] | MIC [8] [µg/mL] | further results |
| --- | --- | --- | --- | --- | --- | --- | --- | --- | --- | --- | --- | --- | --- | --- | --- | --- | --- | --- | --- | --- | --- |
| CC(C)(C)OC(=O)NCC(NC(=O)c1c[nH]c2cc(Br)ccc12)c1c[nH]c2cc(Br)ccc12 (centres unmarked) [Compound 3i, tert-Butyl (2-(6-bromo-1H-indol-3-yl)-2-(6-bromo-1H-indolyl-3-carboxamido)ethyl)carbamate] | 1 (≈ 1.74 µM) | 2 (≈ 3.47 µM) | 2 (≈ 3.47 µM) | 1 (≈ 1.74 µM) | 2 (≈ 3.47 µM) | 2 (≈ 3.47 µM) | 1 (≈ 1.74 µM) | 1 (≈ 1.74 µM) | 1 (≈ 1.74 µM) | 1 (≈ 1.74 µM) | 2 (≈ 3.47 µM) | 2 (≈ 3.47 µM) | 2 (≈ 3.47 µM) | 32 (≈ 55.5 µM) | 32 (≈ 55.5 µM) | 32 (≈ 55.5 µM) | 64 (≈ 111 µM) | 64 (≈ 111 µM) | > 128 | > 128 | MIC [9]: 64 µg/mL (≈ 111 µM); MIC [10]: > 128 µg/mL; MIC [11]: > 128 µg/mL; MIC [12]: 16 µg/mL (≈ 27.8 µM); MIC [13]: > 128 µg/mL; MIC [14]: 32 µg/mL (≈ 55.5 µM); MIC [15]: > 128 µg/mL; MIC (S. pneumoniae ATCC 49619): 32 µg/mL (≈ 55.5 µM); MIC [16]: > 128 µg/mL; inhibition at 10 µM [17]: 91 ± 1%; inhibition at 1 µM [17]: 4%; inhibition at 10 µM [18]: 100 ± 1%; inhibition at 1 µM [18]: 3%; inhibition at 10 µM [19]: 91 ± 7%; inhibition at 1 µM [19]: 10%; IC50 ([20]; first value): 1900 nM; IC50 ([20]; second value): 2100 nM |
| CC(C)(C)OC(=O)NCC(NC(=O)c1c[nH]c2ccc(Br)cc12)c1c[nH]c2cc(Br)ccc12 (centres unmarked) [Compound 3h, tert-Butyl (2-(6-bromo-1H-indol-3-yl)-2-(5-bromo-1H-indolyl-3-carboxamido)ethyl)carbamate] | 1 (≈ 1.74 µM) | 1 (≈ 1.74 µM) | 1 (≈ 1.74 µM) | 2 (≈ 3.47 µM) | 1 (≈ 1.74 µM) | 1 (≈ 1.74 µM) | 2 (≈ 3.47 µM) | 1 (≈ 1.74 µM) | 2 (≈ 3.47 µM) | 2 (≈ 3.47 µM) | 1 (≈ 1.74 µM) | 2 (≈ 3.47 µM) | 1 (≈ 1.74 µM) | 32 (≈ 55.5 µM) | 32 (≈ 55.5 µM) | 32 (≈ 55.5 µM) | 32 (≈ 55.5 µM) | 32 (≈ 55.5 µM) | > 128 | > 128 | MIC [9]: 32 µg/mL (≈ 55.5 µM); MIC [10]: > 128 µg/mL; MIC [11]: > 128 µg/mL; MIC [12]: 16 µg/mL (≈ 27.8 µM); MIC [13]: > 128 µg/mL; MIC [14]: 32 µg/mL (≈ 55.5 µM); MIC [15]: > 128 µg/mL; MIC (S. pneumoniae ATCC 49619): 32 µg/mL (≈ 55.5 µM); MIC [16]: > 128 µg/mL; inhibition at 10 µM [17]: 100 ± 3%; inhibition at 1 µM [17]: 0%; inhibition at 10 µM [18]: 100 ± 1%; inhibition at 1 µM [18]: 0%; inhibition at 10 µM [19]: 92 ± 1%; inhibition at 1 µM [19]: 0%; IC50 ([20]; first value): 3330 nM; IC50 ([20]; second value): 4110 nM |
